Experimental data from patent publication EP1745783A1, “Substituted pyrazoline compounds, their preparation and use as medicaments” (Laboratorios del Dr. Esteve S.A., priority 2005, dated 2007).

Key:
cannabinoid receptors [1] = test: Mouse tetrad model, agonistic effect; assay type: in vivo, Male NMRI mice; settings: 5 mg/kg i.v., mice
Excerpt: (§1) Substances with affinity for cannabinoid receptors are known to produce a wide range of pharmacological effects. It is also known that intravenous administration of a substance with affinity for cannabinoid receptors in mice produces analgesia , hypothermia, sedation and catalepsy. Individually, none of these effects can be considered as proof that a tested substance has affinity for cannabinoid-receptors, since all of these effects are common for various classes of centrally active agents. However, substances, which show all of these effects, i.e. substances that are active in this so-called tetrad model are considered to have affinity for the cannabinoid receptors. It has further been shown that cannabinoid receptor antagonists are higly effective in blocking the effects of a cannabinoid agonist in the mouse tetrad model.
(§2) The tetrad model is described, for example, in the publication of A. C. Howlett et al, International Union of Pharmacology XXVII. Classification of Cannabinoid Receptors, Pharmacol Rev 54, 161-202 , 2002 and David R. Compton et al., "In-vivo Characterization of a Specific Cannabinoid Receptor Antagonist (SR141716A) :Inhibition of Tetrahydrocannbinol- induced Responses and Apparent Agonist Activity", J. Pharmacol. Exp. Ther. 277 , 2, 586-594, 1996. The corresponding parts of the description are hereby incorporated by reference. […]
(§3) Before testing in the behavioral procedures given below, mice are acclimatized to the experimental setting. Pre-Treatment control values are determined for analgesia hot plate latency (in seconds), rectal temperature, sedation and catalepsy.
In order to determine the agonistic activty of the substance to be tested, the mice are injected intravenously with the substance to be tested or the vehicle alone. 15 minutes after injection, latency in hot plate analgesia is measured. Rectal temperature, sedation and catalepsy are measured 20 minutes after injection.
(§4) The hot plate analgesia is determined according to the method described in Woolfe D. et al. "The evaluation of analgesic action of pethidine hydrochloride (Demerol)", J. Pharmacol. Exp. Ther. 80, 300-307,1944. […]
(§5) The mice are placed on a hot plate (Harvard Analgesimeter) at 55 ± 0.5 °C until they show a painful sensation by licking their paws or jumping and the time for these sensations to occur is recorded. This reading is considered the basal value (B). […]
(§6) Fifteen minuts after the administration of the substance to be tested, the mice are again placed on the hot plate and the afore described procedure is repeated. This period is called the post-treatment reading (PT).
(§7) The degree of analgesia is calculated from the formula : %MPE of Analgesia = (PT-B)/(PC-B) × 100 [formula] […]

cannabinoid receptors [2] = test: Mouse tetrad model, antagonistic effect against Win 55212-2; assay type: in vivo, Male NMRI mice; settings: 5 mg/kg i.v. prior to Win 55212-2 in a dose of 1,25mg/kg i.v., mice
Excerpt: as §1, §2, §3
In order to determine the antagonistic activity the identical procedure is used as for the determination of the agonistic effects, but with the difference that the substance to be evaluated for its antagonistic activity is injectected 5 minutes before the intravenous injection of 1.25 mg/kg Win-55,212 a known cannabinoid-receptor agonist.
as §4, §5, §6, §7

O=C(NN1CCCCC1)C1=NN(c2ccc(Cl)cc2Cl)C(c2ccc(Cl)cc2)C1 (centres unmarked) [Example 1, N-piperidinyl-5-(4-chlorophenyl)-1-(2,4-dichlorophenyl)-4,5-dihydro-1H-pyrazole-3-carboxamide]
Agonistic effect A: Hot-Plate test (cannabinoid receptors [1]): 0
Agonistic effect B: Hypothermia (cannabinoid receptors [1]): 0
Agonistic effect C: Catalepsy (cannabinoid receptors [1]): 0
Agonistic effect D: Sedation (cannabinoid receptors [1]): 0
Antagonistic Effect A: Hot-Plate test (cannabinoid receptors [2]): 74
Antagonistic Effect B: Hypothermia (cannabinoid receptors [2]): 100
Antagonistic Effect C: Catalepsy (cannabinoid receptors [2]): 100
Antagonistic Effect D: Sedation (cannabinoid receptors [2]): 100
